Experimental data from publication PMC9571711, “New Biologically Hybrid Pharmacophore Thiazolidinone-Based Indole Derivatives: Synthesis, In Vitro Alpha-Amylase and Alpha-Glucosidase along with Molecular Docking Investigations” (Molecules, 2022).

Experiments:
[1] = target: crude intestinal α-glucosidase; test: In vitro alpha-glucosidase inhibition (p-nitrophenyl-α-D-glucopyranoside); type: biochemical; settings: ± SEM
Experimental: 3.6. Alpha-glucosidase inhibition protocol
α-Glucosidase inhibitory activities was determined as per reported methods. 10 μL of test samples (5 mg/mL DMSO solution) were altered in 100 μL of 100 mM-phosphate buffer (pH 6.8) in 96-well microplate and incubated with 50 μL of crude intestinal α-glucosidase for 5 min before 50μL substrate (5 mM, p-nitrophenyl-α-D-glucopyranoside prepared in same buffer) was […]
plus384) for 5 min after incubation with substrate. Individual blanks for test samples were prepared to correct background absorban ce where substrate was replaced with 50μL of buffer.
Control sample contained 10 μL DMSO in place of test samples. Percentage of enzyme inhibition was calculated as (1-B/A) x 100 where A represents absorbance of control without test samples, and B represents absorbance in presence of test samples. […]

Row | SMILES | melting point | IC50 [1]
1 | O=C1NC(=Nc2nccs2)SC1=Cc1cc2[nH]ccc2cc1F [Compound 5, (2Z,5E)-5-((5-fluoro-1H-indol-6-yl)methylene)-2-(thiazol-2-ylimino)hiazolidine-4-one] | 234 to 236 °C | –
2 | CN(C)c1cc(/C=C2\S/C(=N\c3nccs3)NC2=O)cc2[nH]ccc12 [Compound 9] | 234 to 237 °C | 23.2 ± 0.4 µM
3 | N#Cc1cc(/C=C2\S/C(=N\c3nccs3)NC2=O)cc2[nH]ccc12 [Compound 10] | 239 to 242 °C | 24.6 ± 0.2 µM
4 | O=C1N/C(=N/c2nccs2)S/C1=C\c1cc2[nH]ccc2c(Cl)c1Br [Compound 15] | 241 to 243 °C | 28.4 ± 0.8 µM
5 | O=C1N/C(=N/c2nccs2)S/C1=C\c1cc(Br)c2cc[nH]c2c1Cl [Compound 16] | 240 to 242 °C | 26.7 ± 0.3 µM
6 | Cc1c(Br)c(/C=C2\S/C(=N\c3nccs3)NC2=O)cc2[nH]ccc12 [Compound 17] | 242 to 245 °C | 31.5 ± 0.5 µM
7 | Cc1c(/C=C2\S/C(=N\c3nccs3)NC2=O)cc2[nH]ccc2c1Br [Compound 18] | 239 to 242 °C | 23.3 ± 0.4 µM
8 | O=C1N/C(=N/c2nccs2)S/C1=C\c1c(O)cc2cc[nH]c2c1Br [Compound 20, (2Z,5Z)-5-((7-bromo-5-hydroxy-1H-indol-6-yl)methylene)-2-(thiazol-2-ylimino)thiazolidin-4-one] | 234 to 237 °C | 29.4 ± 0.9 µM

Further molecules by falling IC50 [1], results first:

Row | melting point | IC50 [1] | SMILES
9 | – | 19.8 ± 0.6 µM | O=C1N/C(=N/c2nccs2)S/C1=C\c1cccc(O)c1 [Compound 19]
10 | 231 to 233 °C | 13.5 ± 0.4 µM | O=C1N/C(=N/c2nccs2)S/C1=C\c1cc2[nH]ccc2c(Cl)c1Cl [Compound 14]
11 | 236 to 239 °C | 9.1 ± 0.3 µM | O=C1N/C(=N/c2nccs2)S/C1=C\c1cc(O)c2cc[nH]c2c1Cl [Compound 12]
12 | 235 to 237 °C | 8.7 ± 0.2 µM | O=C1N/C(=N/c2nccs2)S/C1=C\c1cc2[nH]ccc2c(Cl)c1[N+](=O)[O-] [Compound 3]
13 | 238 to 241 °C | 8.7 ± 0.8 µM | COc1cc2cc[nH]c2c(O)c1/C=C1\S/C(=N\c2nccs2)NC1=O [Compound 8]
14 | 236 to 239 °C | 7.85 ± 0.2 µM | O=C1N/C(=N/c2nccs2)S/C1=C\c1c(O)cc2cc[nH]c2c1Cl [Compound 11]
15 | 238 to 240 °C | 4.5 ± 0.7 µM | O=C1N/C(=N/c2nccs2)S/C1=C\c1cc(C(F)(F)F)c2cc[nH]c2c1O [Compound 6]
16 | 238 to 241 °C | 3.5 ± 0.8 µM | O=C1N/C(=N/c2nccs2)S/C1=C\c1cc(O)c2cc[nH]c2c1O [Compound 7]
17 | 237 to 239 °C | 2.7 ± 0.7 µM | O=C1N/C(=N/c2nccs2)S/C1=C/c1cc(F)c2cc[nH]c2c1 [Compound 4, (2Z,5E)-5-((4-fluoro-1H-indol-6-yl)methylene)-2-(thiazol-2-ylimino)thiazolidin-4-one]
